Measurements from ChEMBL document CHEMBL5303573, “Mapping human microbiome drug metabolism by gut bacteria and their genes” (Nature, 2019).

How the values were obtained:
[1] = The drug is tested on Collinsella intestinalis strain: DSM13280 for biotransformation. The drug concentrations were measured before and after a 12-h incubation by liquid-chromatography-coupled mass spectrometry (LC–MS); conditions: 2 µM
[2] = The drug is tested on Bacteroides caccae strain: ATCC43185 for biotransformation. The drug concentrations were measured before and after a 12-h incubation by liquid-chromatography-coupled mass spectrometry (LC–MS); conditions: 2 µM
[3] = The drug is tested on Blautia luti strain: DSM14534 for biotransformation. The drug concentrations were measured before and after a 12-h incubation by liquid-chromatography-coupled mass spectrometry (LC–MS); type: ADME; set-up: dose 2 uM, timepoint 0 vs 12 hours; conditions: 2 µM
[4] = The drug is tested on Clostridium sp. strain: fecal isolate for biotransformation. The drug concentrations were measured before and after a 12-h incubation by liquid-chromatography-coupled mass spectrometry (LC–MS); conditions: 2 µM
[5] = The drug is tested on Clostridium sporogenes strain: ATCC15579 for biotransformation. The drug concentrations were measured before and after a 12-h incubation by liquid-chromatography-coupled mass spectrometry (LC–MS); conditions: 2 µM
[6] = The drug is tested on Clostridium symbiosum strain: ATCC14940 for biotransformation. The drug concentrations were measured before and after a 12-h incubation by liquid-chromatography-coupled mass spectrometry (LC–MS); conditions: 2 µM
[7] = The drug is tested on Dorea formicigenerans strain: ATCC27755 for biotransformation. The drug concentrations were measured before and after a 12-h incubation by liquid-chromatography-coupled mass spectrometry (LC–MS); conditions: 2 µM
[8] = The drug is tested on Ruminococcus torques strain: ATCC27756 for biotransformation. The drug concentrations were measured before and after a 12-h incubation by liquid-chromatography-coupled mass spectrometry (LC–MS); type: ADME; set-up: dose 2 uM, timepoint 0 vs 12 hours; conditions: 2 µM
[9] = The drug is tested on Subdoligranulum variabile strain: DSM15176 for biotransformation. The drug concentrations were measured before and after a 12-h incubation by liquid-chromatography-coupled mass spectrometry (LC–MS); conditions: 2 µM
[10] = The drug is tested on Edwardsiella tarda strain: ATCC23685 for biotransformation. The drug concentrations were measured before and after a 12-h incubation by liquid-chromatography-coupled mass spectrometry (LC–MS); conditions: 2 µM
[11] = The drug is tested on Providencia rettgeri strain: DSM1131 for biotransformation. The drug concentrations were measured before and after a 12-h incubation by liquid-chromatography-coupled mass spectrometry (LC–MS); type: ADME; set-up: dose 2 uM, timepoint 0 vs 12 hours; conditions: 2 µM
[12] = The drug is tested on Providencia stuartii strain: ATCC25827 for biotransformation. The drug concentrations were measured before and after a 12-h incubation by liquid-chromatography-coupled mass spectrometry (LC–MS); conditions: 2 µM
[13] = bacteroides fragilis, 12 h, 2 µM
Description: The drug is tested on Bacteroides fragilis strain: 3397 (T10) for biotransformation. The drug concentrations were measured before and after a 12-h incubation by liquid-chromatography-coupled mass spectrometry (LC–MS)

[14] = bacteroides thetaiotaomicron, 12 h, 2 µM
Description: The drug is tested on Bacteroides thetaiotaomicron strain: 3731 for biotransformation. The drug concentrations were measured before and after a 12-h incubation by liquid-chromatography-coupled mass spectrometry (LC–MS)

[15] = segatella copri, 12 h, 2 µM
Description: The drug is tested on Prevotella copri strain: DSM18205 for biotransformation. The drug concentrations were measured before and after a 12-h incubation by liquid-chromatography-coupled mass spectrometry (LC–MS)

[16] = anaerostipes sp., 12 h, 2 µM
Description: The drug is tested on Anaerostipes sp. strain: fecal isolate for biotransformation. The drug concentrations were measured before and after a 12-h incubation by liquid-chromatography-coupled mass spectrometry (LC–MS)

[17] = akkermansia muciniphila, 12 h, 2 µM
Description: The drug is tested on Akkermansia muciniphila strain: ATCC BAA-835 for biotransformation. The drug concentrations were measured before and after a 12-h incubation by liquid-chromatography-coupled mass spectrometry (LC–MS)

[18] = bacteroides fragilis, 12 h, 2 µM; remark: listed apart in the source
Description: The drug is tested on Bacteroides fragilis strain: NCTC 9343 for biotransformation. The drug concentrations were measured before and after a 12-h incubation by liquid-chromatography-coupled mass spectrometry (LC–MS)

[19] = The drug is tested on Bacteroides fragilis strain: HMW610 for biotransformation. The drug concentrations were measured before and after a 12-h incubation by liquid-chromatography-coupled mass spectrometry (LC–MS); conditions: 2 µM
[20] = parabacteroides johnsonii, 12 h, 2 µM
Description: The drug is tested on Parabacteroides johnsonii strain: DSM18315 for biotransformation. The drug concentrations were measured before and after a 12-h incubation by liquid-chromatography-coupled mass spectrometry (LC–MS)

Compound | Bacterial Biotransformation [1] | Bacterial Biotransformation [2] | Bacterial Biotransformation [3] | Bacterial Biotransformation [4] | Bacterial Biotransformation [5] | Bacterial Biotransformation [6] | Bacterial Biotransformation [7] | Bacterial Biotransformation [8] | Bacterial Biotransformation [9] | Bacterial Biotransformation [10] | Bacterial Biotransformation [11] | Bacterial Biotransformation [12] | Bacterial Biotransformation [13] | Bacterial Biotransformation [14] | Bacterial Biotransformation [15] | Bacterial Biotransformation [16] | Bacterial Biotransformation [17] | Bacterial Biotransformation [18] | Bacterial Biotransformation [19] | Bacterial Biotransformation [20]
OC(CCN1CCCCC1)(c1ccccc1)C1CC2C=CC1C2 (centres undefined) [BIPERIDEN] | Compound NOT metabolized | Compound NOT metabolized | Compound NOT metabolized | Compound NOT metabolized | Compound NOT metabolized | Compound NOT metabolized | Compound NOT metabolized | Compound NOT metabolized | Compound NOT metabolized | Compound NOT metabolized | Compound NOT metabolized | Compound NOT metabolized | Compound NOT metabolized | Compound NOT metabolized | Compound NOT metabolized | Compound NOT metabolized | Compound NOT metabolized | – | – | –
C=CCc1ccccc1OCC(O)CNC(C)C (centres undefined) [ALPRENOLOL] | Compound NOT metabolized | Compound NOT metabolized | Compound NOT metabolized | Compound NOT metabolized | Compound NOT metabolized | Compound NOT metabolized | Compound NOT metabolized | Compound NOT metabolized | Compound NOT metabolized | Compound NOT metabolized | Compound NOT metabolized | Compound NOT metabolized | Compound NOT metabolized | – | Compound NOT metabolized | Compound NOT metabolized | – | Compound NOT metabolized | – | –
CN(C)CCc1c[nH]c2ccc(CS(=O)(=O)N3CCCC3)cc12 [ALMOTRIPTAN] | Compound NOT metabolized | Compound NOT metabolized | Compound NOT metabolized | Compound NOT metabolized | Compound NOT metabolized | Compound NOT metabolized | Compound NOT metabolized | Compound NOT metabolized | Compound NOT metabolized | Compound NOT metabolized | Compound NOT metabolized | Compound NOT metabolized | Compound NOT metabolized | – | Compound NOT metabolized | Compound NOT metabolized | – | Compound NOT metabolized | – | –
CCN(CC)C(=O)/C(C#N)=C/c1cc(O)c(O)c([N+](=O)[O-])c1 [ENTACAPONE] | Compound metabolized | Compound metabolized | Compound metabolized | Compound metabolized | Compound metabolized | Compound metabolized | Compound metabolized | Compound metabolized | Compound metabolized | Compound metabolized | – | Compound metabolized | Compound metabolized | Compound metabolized | Compound metabolized | Compound metabolized | Compound metabolized | Compound metabolized | Compound metabolized | Compound metabolized
CCOC(=O)[C@H](CCc1ccccc1)N[C@H]1CCc2ccccc2N(CC(=O)O)C1=O [BENAZEPRIL] | Compound NOT metabolized | Compound metabolized | – | Compound NOT metabolized | Compound metabolized | Compound NOT metabolized | Compound NOT metabolized | Compound NOT metabolized | Compound NOT metabolized | Compound NOT metabolized | – | Compound NOT metabolized | Compound metabolized | Compound metabolized | Compound metabolized | Compound NOT metabolized | Compound NOT metabolized | Compound NOT metabolized | Compound metabolized | Compound metabolized
O=C1CN2Cc3c(ccc(Cl)c3Cl)N=C2N1 [ANAGRELIDE] | Compound NOT metabolized | – | Compound NOT metabolized | Compound metabolized | Compound NOT metabolized | Compound NOT metabolized | Compound NOT metabolized | Compound NOT metabolized | Compound NOT metabolized | Compound NOT metabolized | Compound NOT metabolized | Compound NOT metabolized | Compound NOT metabolized | Compound NOT metabolized | – | Compound NOT metabolized | – | Compound NOT metabolized | – | Compound metabolized
CCN(CC)CCOCCOC(=O)C1(c2ccccc2)CCCC1.O=C(O)CC(O)(CC(=O)O)C(=O)O [CARBETAPENTANE CITRATE] | Compound metabolized | Compound metabolized | Compound metabolized | Compound metabolized | Compound metabolized | Compound metabolized | Compound metabolized | Compound metabolized | Compound metabolized | Compound metabolized | Compound metabolized | Compound metabolized | Compound metabolized | Compound metabolized | Compound metabolized | Compound metabolized | Compound metabolized | Compound metabolized | – | Compound metabolized
CC(Oc1c(Cl)cccc1Cl)C1=NCCN1 (centres undefined) [LOFEXIDINE] | Compound NOT metabolized | Compound metabolized | Compound metabolized | Compound metabolized | Compound metabolized | Compound metabolized | Compound metabolized | Compound metabolized | Compound metabolized | Compound metabolized | Compound metabolized | Compound metabolized | Compound metabolized | Compound metabolized | Compound metabolized | Compound metabolized | Compound metabolized | Compound metabolized | – | Compound metabolized
CCN1CCCC1CNC(=O)c1cc(S(=O)(=O)CC)c(N)cc1OC (centres undefined) [AMISULPRIDE] | Compound NOT metabolized | Compound NOT metabolized | Compound NOT metabolized | Compound NOT metabolized | Compound NOT metabolized | Compound NOT metabolized | Compound NOT metabolized | Compound NOT metabolized | Compound NOT metabolized | Compound NOT metabolized | Compound NOT metabolized | Compound NOT metabolized | Compound NOT metabolized | Compound NOT metabolized | Compound NOT metabolized | Compound NOT metabolized | Compound NOT metabolized | Compound NOT metabolized | – | Compound NOT metabolized
